From ChEMBL document CHEMBL3588815, “Distinct Temporal Fingerprint for Cyclic Adenosine Monophosphate (cAMP) Signaling of Indole-2-carboxamides as Allosteric Modulators of the Cannabinoid Receptors” (J Med Chem, 2015)
Calls of active or inactive are those of the source. The calls are words filed in the database; no cut-off is given here.

Assays:
Cannabinoid receptor 1 [1] = target: T1, Cannabinoid receptor 1 (Homo sapiens, UniProt P21554); assay: Allosteric agonist activity at hemagglutinin-tagged human CB1 receptor expressed in HEK293 cells assessed as effect on forskolin-induced cAMP accumulation at 10 uM by kinetic cAMP assay; assay type: functional, cell-based
Cannabinoid receptor 1 [2] = target: T1, Cannabinoid receptor 1; assay: Inverse agonist activity at hemagglutinin-tagged human CB1 receptor expressed in HEK293 cells assessed as effect on forskolin-induced cAMP accumulation after 5 to 15 mins in presence of CP55,940 by cAMP BRET assay; assay type: functional, cell-based
Cannabinoid receptor 1 [3] = target: T1, Cannabinoid receptor 1; assay: Activity at hemagglutinin-tagged human CB1 receptor expressed in HEK293 cells assessed as effect on forskolin-induced cAMP accumulation after 10 mins in presence of CP55,940 by cAMP BRET assay; assay type: functional, cell-based
Cannabinoid receptor 2 [4] = target: T2, Cannabinoid receptor 2 (Homo sapiens, UniProt P34972); assay: Allosteric modulator activity at hemagglutinin-tagged human CB2 receptor expressed in Flp-In-293 cells assessed as effect on CP55,940-induced inhibition of forskolin-induced cAMP accumulation by kinetic cAMP assay; assay type: functional, cell-based
Cannabinoid receptor 1 [5] = target: T1, Cannabinoid receptor 1; assay: Activity at hemagglutinin-tagged human CB1 receptor expressed in HEK293 cells assessed as effect on forskolin-induced cAMP accumulation after 5 mins in presence of CP55,940 by cAMP BRET assay; assay type: functional, cell-based
Cannabinoid receptor 1 [6] = target: T1, Cannabinoid receptor 1; assay: Allosteric modulator activity at hemagglutinin-tagged human CB1 receptor expressed in HEK293 cells assessed as effect on CP55,940-induced inhibition of forskolin-induced cAMP accumulation by kinetic cAMP assay; assay type: functional, cell-based
Cannabinoid receptor 1 [7] = target: T1, Cannabinoid receptor 1; assay: Activity at hemagglutinin-tagged human CB1 receptor expressed in HEK293 cells assessed as effect on forskolin-induced cAMP accumulation in presence of CP55,940 by cAMP BRET assay; assay type: functional, cell-based
Cannabinoid receptor 1 [8] = target: T1, Cannabinoid receptor 1; assay: Inverse agonist activity at hemagglutinin-tagged human CB1 receptor expressed in HEK293 cells assessed as increase in forskolin-induced cAMP accumulation in absence of CP55,940 at 10 uM and 31.6 uM by cAMP BRET assay; assay type: functional, cell-based
Cannabinoid receptor 1 [9] = target: T1, Cannabinoid receptor 1; assay: Activity at hemagglutinin-tagged human CB1 receptor expressed in HEK293 cells assessed as effect on forskolin-induced cAMP accumulation after 15 mins in presence of CP55,940 by cAMP BRET assay; assay type: functional, cell-based
Cannabinoid receptor 1 [10] = target: T1, Cannabinoid receptor 1; assay: Slow antagonist/Inverse agonist activity at hemagglutinin-tagged human CB1 receptor expressed in HEK293 cells assessed as reversal of 1 uM CP55,940-induced inhibition of 5 uM forskolin-induced cAMP accumulation by kinetic cAMP assay; assay type: functional, cell-based
Cannabinoid receptor 2 [11] = target: T2, Cannabinoid receptor 2; assay: Allosteric agonist activity at hemagglutinin-tagged human CB2 receptor expressed in HEK293 cells assessed as effect on forskolin-induced cAMP accumulation at 10 uM by kinetic cAMP assay; assay type: functional, cell-based
Cannabinoid receptor 2 [12] = target: T2, Cannabinoid receptor 2; assay: Activity at hemagglutinin-tagged human CB2 receptor expressed in HEK293 cells assessed as inhibition of forskolin-induced cAMP accumulation in absence of CP55,940 by cAMP BRET assay; assay type: functional, cell-based
Cannabinoid receptor 1 [13] = target: T1, Cannabinoid receptor 1; assay: Activity at human CB1 receptor expressed in AtT20 cells assessed as effect on 1 uM CP55,940-induced peak hyperpolarization up to 10 uM by membrane potential assay; assay type: cell-based
Cannabinoid receptor 1 [14] = target: T1, Cannabinoid receptor 1; assay: Activity at human CB1 receptor expressed in AtT20 cells assessed as increase in rate of repolarization at 0.1 to 10 uM in presence of 1 uM CP55,940 by membrane potential assay; assay type: cell-based
Cannabinoid receptor 2 [15] = target: T2, Cannabinoid receptor 2; assay: Antagonist activity against hemagglutinin-tagged human CB2 receptor expressed in HEK293 cells assessed as suppression of CP55,940-induced inhibition of forskolin-induced cAMP accumulation by cAMP BRET assay; assay type: functional, cell-based
Cannabinoid receptor 2 [16] = target: T2, Cannabinoid receptor 2; assay: Activity at hemagglutinin-tagged human CB2 receptor expressed in HEK293 cells assessed as increase in forskolin-induced cAMP accumulation in absence of CP55,940 by cAMP BRET assay; assay type: functional, cell-based
Cannabinoid receptor 1 [17] = target: T1, Cannabinoid receptor 1; assay: Inverse agonist activity at hemagglutinin-tagged human CB1 receptor expressed in HEK293 cells assessed as increase in forskolin-induced cAMP accumulation in absence of CP55,940 at 31.6 uM by cAMP BRET assay; assay type: functional, cell-based
HEK293 = assay: Reduction in cAMP accumulation in HEK293 cells by kinetic cAMP assay; assay type: ADME, cell-based; details: human

T2 sequence (P34972 whole entry): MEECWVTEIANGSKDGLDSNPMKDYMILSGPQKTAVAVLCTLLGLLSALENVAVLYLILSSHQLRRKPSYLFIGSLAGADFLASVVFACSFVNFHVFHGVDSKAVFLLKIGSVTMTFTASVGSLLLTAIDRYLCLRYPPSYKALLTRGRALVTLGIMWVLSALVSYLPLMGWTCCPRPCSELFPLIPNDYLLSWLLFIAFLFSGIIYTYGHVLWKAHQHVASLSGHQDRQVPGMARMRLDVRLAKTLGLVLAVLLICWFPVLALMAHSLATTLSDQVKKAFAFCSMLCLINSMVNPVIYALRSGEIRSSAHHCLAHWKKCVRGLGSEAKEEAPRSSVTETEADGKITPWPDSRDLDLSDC
T1 sequence (P21554 whole entry): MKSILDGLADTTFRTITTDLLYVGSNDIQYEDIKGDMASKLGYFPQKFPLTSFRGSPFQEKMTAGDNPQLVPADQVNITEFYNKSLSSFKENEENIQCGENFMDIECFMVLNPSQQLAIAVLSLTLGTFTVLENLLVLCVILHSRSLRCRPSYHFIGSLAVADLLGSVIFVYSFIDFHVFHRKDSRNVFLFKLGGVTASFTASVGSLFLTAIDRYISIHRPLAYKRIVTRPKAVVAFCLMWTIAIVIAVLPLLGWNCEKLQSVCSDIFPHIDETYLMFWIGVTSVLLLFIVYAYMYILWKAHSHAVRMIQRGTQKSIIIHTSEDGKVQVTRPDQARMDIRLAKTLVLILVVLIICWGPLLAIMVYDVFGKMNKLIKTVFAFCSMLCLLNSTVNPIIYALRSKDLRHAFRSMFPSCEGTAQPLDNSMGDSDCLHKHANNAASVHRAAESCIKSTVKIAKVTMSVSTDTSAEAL

| Compound | Activity (Cannabinoid receptor 1 [1]) | Activity (Cannabinoid receptor 1 [2]) | EC50 (Cannabinoid receptor 1 [3]) [nM] | Activity (Cannabinoid receptor 2 [4]) | EC50 (Cannabinoid receptor 1 [5]) [µM] | Activity (Cannabinoid receptor 1 [6]) | EC50 (Cannabinoid receptor 1 [7]) [nM] | Activity (Cannabinoid receptor 1 [8]) | EC50 (Cannabinoid receptor 1 [9]) [nM] | inhibition (Cannabinoid receptor 1 [10]) | Activity (Cannabinoid receptor 2 [11]) | EC50 (Cannabinoid receptor 1 [3]; hek293) [nM] | EC50 (Cannabinoid receptor 1 [7]; hek293) [nM] | EC50 (Cannabinoid receptor 2 [12]) [nM] | Activity (Cannabinoid receptor 1 [13]) | Activity (Cannabinoid receptor 1 [14]) | inhibition (Cannabinoid receptor 2 [15]) | Activity (Cannabinoid receptor 2 [16]) | Activity (Cannabinoid receptor 1 [17]) | Activity (HEK293) |
| --- | --- | --- | --- | --- | --- | --- | --- | --- | --- | --- | --- | --- | --- | --- | --- | --- | --- | --- | --- | --- |
| CCc1c(C(=O)NCCc2ccc(N(C)C)cc2)[nH]c2ccc(Cl)cc12 | Active | Active | 430 | inactive | 3.43 | Active | 600 | Active | 210 | Active | inactive | – | – | – | – | – | – | – | – | – |
| CCc1c(C(=O)OCCc2ccc(NC)cc2)[nH]c2ccc(Cl)cc12 | inactive | – | – | inactive | < 10 | Active | – | – | < 10000 | – | inactive | < 10000 | < 10000 | – | – | – | – | – | – | – |
| CCc1c(C(=O)NCCc2ccc(F)cc2)[nH]c2ccc(Cl)cc12 | inactive | Active | 4580 | inactive | 7.37 | Active | 4990 | – | 8960 | – | inactive | – | – | – | – | – | – | – | – | – |
| CCc1c(C(=O)OCCc2ccc(N3CCCCC3)cc2)[nH]c2ccc(Cl)cc12 | inactive | – | – | inactive | – | inactive | – | – | – | – | Active | – | – | 130 | – | – | – | – | – | – |
| CCc1c(C(=O)NCCc2ccc(Cl)cc2)[nH]c2ccc(Cl)cc12 | inactive | Active | 1840 | inactive | 8.18 | Active | 3420 | – | 20000 | – | inactive | – | – | – | inactive | Active | – | – | – | – |
| CCc1c(C(=O)NCCc2ccc(C)cc2)[nH]c2ccc(Cl)cc12 | inactive | Active | 600 | inactive | 1.01 | Active | 790 | – | 470 | – | inactive | – | – | – | inactive | Active | – | – | – | – |
| O=C(NCCc1ccc([N+](=O)[O-])cc1)c1cc2cc(Cl)ccc2[nH]1 | inactive | – | – | inactive | – | Active | – | – | – | – | inactive | – | – | – | – | – | – | – | – | – |
| CCc1c(C(=O)NCCc2ccc([N+](=O)[O-])cc2)[nH]c2ccc(Cl)cc12 | Active | Active | 660 | Active | 3.59 | Active | 1140 | Active | 440 | Active | inactive | – | – | – | – | – | Active | – | – | – |
| O=C(NCCc1ccc(Cl)cc1)c1cc2cc(Cl)ccc2[nH]1 | inactive | – | – | inactive | – | inactive | – | – | – | – | inactive | – | – | – | – | – | – | – | – | – |
| O=C(NCCc1ccc(N2CCCCC2)cc1)c1cc2cc(Cl)ccc2[nH]1 | inactive | – | – | inactive | – | inactive | – | – | – | – | inactive | – | – | – | – | – | – | – | – | – |
| CCc1c(C(=O)NCCc2ccc(N3CCCC3)cc2)[nH]c2ccc(Cl)cc12 | inactive | – | – | inactive | – | inactive | – | – | – | Active | inactive | – | – | – | – | – | – | – | – | – |
| CCc1c(C(=O)NCCc2ccc(N3CCCCC3)cc2)[nH]c2ccccc12 | Active | Active | 2990 | inactive | 6.84 | Active | 4010 | – | 3550 | – | Active | – | – | – | inactive | Active | – | Active | Active | – |
| CCc1c(C(=O)NCCc2ccc(N)cc2)[nH]c2ccc(Cl)cc12 | Active | – | – | Active | – | inactive | – | – | – | – | Active | – | – | – | – | – | – | – | – | Toxic |
| CCc1c(C(=O)NCCc2ccc(N3CCCCC3)cc2)[nH]c2ccc(Cl)cc12 | Active | Active | 2090 | inactive | 10.6 | Active | 2240 | Active | 640 | – | inactive | – | – | – | inactive | Active | – | – | – | – |
| CC(O)c1c(C(=O)NCCc2ccc(N3CCCCC3)cc2)[nH]c2ccc(Cl)cc12 (centres undefined) | Active | Active | 2970 | inactive | 13.4 | Active | 2660 | Active | 1510 | – | inactive | – | – | – | – | – | – | – | – | – |
